From PMC7002685, “Inhibition of vascular calcification by inositol phosphates derivatized with ethylene glycol oligomers” (Nature Communications, 2020)

Legend:
[1] = system: panel of 87 enzymes, receptors, or ion channels; assay: Off-target panel of 87 enzymes, receptors, or ion channels; assay type: biochemical; conditions: 10 µM
Experimental: (§1) The potential off-target activity of 10 µM (OEG2)2-IP4 was assessed against a panel of 87 enzymes, receptors, or ion channels that are used in standard safety pharmacology screens.
(§2) 3.2. Off-target screening assay
(§3) The experiments were conducted by a contract research organization (Eurofins Panlabs Discovery Services Taiwan, Ltd.) and details on the respective assays can be retrieved via the catalog number provided in Supplementary Table 11 from the company’s webpage
(§4) (https://www.eurofinsdiscoveryservices.com/). […]
(§5) At sacrifice the left tibia of animals of the rat model with dietary adenine/high-phosphate-induced uremia and VC was collected, fixed with 70% v/v EtOH and embedded in methyl methacrylate. The trabecular bone compartment is known to be the most metabolic active i.e. actively re-structured bone compartment in CKD. Therefore, histomorphometric and micro-computed tomography (µCT) analysis of bone was performed on the trabecular compartment. Tibial sections were Goldner-stained for histomorphometric analysis of the proximal metaphysis using the AxioVision Release 4.5 software, as […]
(§6) described previously5. […]

vascular calcification = assay: Adenine and high-phosphate-diet-induced rat model of VC; assay type: in vivo, male Wistar rats
Experimental: Uremia increases the risk for developing VC. Therefore, the effect of (OEG2)2-IP4 on the development of VC was investigated in a previously established adenine and high-phosphate-diet-induced rat model of VC that results in uremia and chronic renal failure. […] (OEG2)2-IP4 was administered via a s.c.-implanted osmotic pump at doses of 5, 15, or 50 mg/kg/day for 4 weeks, and treatment was initiated 1 week after the start of adenine supplementation. […] Animals in this model developed severe CKD (Supplementary Fig. 20), which was accompanied by substantial weight loss (Supplementary Fig. 21). No significant difference in the level of renal failure and body weight loss was observed between the different treatment groups, with the exception of creatinine at week 3 and serum phosphate at sacrifice in the 15 mg/kg/day group (Supplementary Fig. 20).
The inhibitory effect of (OEG2)2-IP4 on heart calcifications was significant starting at 15 mg/kg/day (Fig. 6b). The compound’s activity was also evident following von Kossa staining (Fig. 6c) on the thoracic part of the aorta, and quantification of the von Kossa-positive area (Fig. 6d). […] In the femoral artery, reduction in bulk calcium was insignificant for all tested groups, likely due to the low level of calcification detected in the vehicle control (Fig. 6f, Supplementary Table 9).
Male Wistar rats (Charles River) were housed two per cage with free access to water and standard chow and submitted to a 12-h light/dark cycle. Compounds were administered and doses calculated using the salt form. Animals were randomly assigned to four groups of 12 animals each and given a high-phosphate (1.03%) diet for 2 weeks before starting a special diet to initiate uremia. Uremia/VC was induced in all animals by freely fed diet containing high-phosphate (0.92%), low-protein (2.5% instead of 19%), and adenine (0.75%) for 4 weeks. The diet was again switched to a high-phosphate (1.03%) diet for 1 week, after which rats were sacrificed.
The first group was treated with vehicle (double distilled (d.d.) water), the second, third, and fourth groups were treated with daily doses equivalent of 5, 15, and 50 mg/kg of (OEG2)2-IP4, respectively, in 2 mL d.d. water starting 1 week after the administration of the adenine diet. Compounds were delivered continuously for 4 weeks via osmotic pumps (type 2ML4; Alzet, Cupertino, CA, USA) implanted subcutaneously under anesthesia 1 week after the start of the adenine diet. Blood sampling for serum and plasma at baseline, week 1, and week 3 was performed in restrained, conscious animals. […] Serum samples were analyzed for creatinine according to the Jaffe method, calcium (using flame atomic absorption spectrometry[74]), and phosphate (DiaSys Diagnostic Systems, Holzheim, Germany) concentrations. In serum samples taken at sacrifice, the CPP-associated calcium was quantified by calculating the difference between total serum calcium (measured in serum supernatants after centrifugation at 3000 × g, RT, 15 min) and serum calcium after removing CPPs by centrifugation (16,000 × g and 4 °C for 120 min)[26]. In addition, serum aliquots were centrifuged (10,000 × g, 4 °C, 30 min) and T50’s were determined as described above. CPP size was monitored by hourly DLS measurements at 37 °C, after spiking cleared serum samples with calcium (10 mM) and phosphate (6 mM), for a total of 8 h[29].
At sacrifice, the heart, the abdominal aorta, left carotids, and femoral arteries were collected. The presence of calcification in each animal was evaluated on paraffin-embedded, von Kossa stained sections of the thoracic aorta (as described previously[74]), as well as by measurement of the total calcium content in the heart and vascular tissue samples by flame atomic absorption spectrometry.

PPARγ = biological target: T1, PPARγ (Homo sapiens, UniProt P37231); assay: Off-target 267500; assay type: binding
T1 construct: purchased Eurofins Panlabs Discovery Services Taiwan, Ltd
Experimental: as §1, §2, §3, §4, §5, §6

[2] = biological target: T2, Protein Tyrosine Kinase, Insulin Receptor (Homo sapiens, UniProt P06213); assay: Off-target 174990; assay type: biochemical
T2 construct: purchased Eurofins Panlabs Discovery Services Taiwan, Ltd
Experimental: as §1, §2, §3, §4, §5, §6

[3] = biological target: T3, (Homo sapiens, UniProt P25100); assay: Off-target 203400; assay type: binding
T3 construct: purchased Eurofins Panlabs Discovery Services Taiwan, Ltd
Experimental: as §1, §2, §3, §4, §5, §6

[4] = biological target: T4, Serotonin (5-Hydroxytryptamine) 5-HT1A (Homo sapiens, UniProt P08908); assay: Off-target 271110; assay type: binding
T4 construct: purchased Eurofins Panlabs Discovery Services Taiwan, Ltd
Experimental: as §1, §2
The experiments were conducted by a contract research organization (Eurofins Panlabs Discovery
Services Taiwan, Ltd.) and details on the respective assays can be retrieved via the catalog number
provided in Supplementary Table 11 from the company’s webpage
as §4

[5] = biological target: T5, Serotonin (5-Hydroxytryptamine) 5-HT1B (Homo sapiens, UniProt P28222); assay: Off-target 271230; assay type: binding
T5 construct: purchased Eurofins Panlabs Discovery Services Taiwan, Ltd
Experimental: as §1, §2, §3, §4, §5, §6

Glutamate, NMDA, Agonism = assay: Off-target 232810; assay type: binding, Rat; conditions: 10 µM
Experimental: as §1, §2, §3, §4, §5, §6

Calcium Channel N-Type = biological target: T6, Calcium Channel N-Type (Rattus norvegicus, UniProt Q02294); assay: Off-target 216000; assay type: binding
T6 construct: purchased Eurofins Panlabs Discovery Services Taiwan, Ltd
Experimental: as §1, §2, §3, §4, §5, §6

T4 sequence (P08908 whole entry): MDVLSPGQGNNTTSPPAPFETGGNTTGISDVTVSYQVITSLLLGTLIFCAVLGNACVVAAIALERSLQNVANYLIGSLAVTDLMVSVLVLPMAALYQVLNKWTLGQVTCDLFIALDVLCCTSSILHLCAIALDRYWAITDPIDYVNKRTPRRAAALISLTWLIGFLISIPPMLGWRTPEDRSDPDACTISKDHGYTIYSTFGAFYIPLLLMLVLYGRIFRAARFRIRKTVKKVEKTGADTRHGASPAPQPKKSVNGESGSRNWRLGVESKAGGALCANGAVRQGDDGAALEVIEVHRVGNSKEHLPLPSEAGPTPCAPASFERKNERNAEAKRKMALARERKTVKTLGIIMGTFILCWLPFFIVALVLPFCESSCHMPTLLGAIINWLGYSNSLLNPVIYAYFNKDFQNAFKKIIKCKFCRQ
T1 sequence (P37231 whole entry): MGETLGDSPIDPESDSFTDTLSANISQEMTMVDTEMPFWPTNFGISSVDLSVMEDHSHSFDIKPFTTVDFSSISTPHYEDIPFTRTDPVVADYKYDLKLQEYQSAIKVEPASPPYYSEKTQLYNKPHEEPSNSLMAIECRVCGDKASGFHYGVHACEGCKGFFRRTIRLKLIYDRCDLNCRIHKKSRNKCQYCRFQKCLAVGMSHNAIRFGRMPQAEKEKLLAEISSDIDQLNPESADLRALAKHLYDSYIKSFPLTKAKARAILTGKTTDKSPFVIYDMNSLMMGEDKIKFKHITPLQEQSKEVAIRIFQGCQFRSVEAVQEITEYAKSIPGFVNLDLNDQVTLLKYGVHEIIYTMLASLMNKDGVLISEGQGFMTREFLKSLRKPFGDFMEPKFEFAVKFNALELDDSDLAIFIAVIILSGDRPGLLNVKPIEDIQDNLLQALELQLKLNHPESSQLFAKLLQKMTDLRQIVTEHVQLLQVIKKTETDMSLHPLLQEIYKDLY
T6 sequence (Q02294 whole entry): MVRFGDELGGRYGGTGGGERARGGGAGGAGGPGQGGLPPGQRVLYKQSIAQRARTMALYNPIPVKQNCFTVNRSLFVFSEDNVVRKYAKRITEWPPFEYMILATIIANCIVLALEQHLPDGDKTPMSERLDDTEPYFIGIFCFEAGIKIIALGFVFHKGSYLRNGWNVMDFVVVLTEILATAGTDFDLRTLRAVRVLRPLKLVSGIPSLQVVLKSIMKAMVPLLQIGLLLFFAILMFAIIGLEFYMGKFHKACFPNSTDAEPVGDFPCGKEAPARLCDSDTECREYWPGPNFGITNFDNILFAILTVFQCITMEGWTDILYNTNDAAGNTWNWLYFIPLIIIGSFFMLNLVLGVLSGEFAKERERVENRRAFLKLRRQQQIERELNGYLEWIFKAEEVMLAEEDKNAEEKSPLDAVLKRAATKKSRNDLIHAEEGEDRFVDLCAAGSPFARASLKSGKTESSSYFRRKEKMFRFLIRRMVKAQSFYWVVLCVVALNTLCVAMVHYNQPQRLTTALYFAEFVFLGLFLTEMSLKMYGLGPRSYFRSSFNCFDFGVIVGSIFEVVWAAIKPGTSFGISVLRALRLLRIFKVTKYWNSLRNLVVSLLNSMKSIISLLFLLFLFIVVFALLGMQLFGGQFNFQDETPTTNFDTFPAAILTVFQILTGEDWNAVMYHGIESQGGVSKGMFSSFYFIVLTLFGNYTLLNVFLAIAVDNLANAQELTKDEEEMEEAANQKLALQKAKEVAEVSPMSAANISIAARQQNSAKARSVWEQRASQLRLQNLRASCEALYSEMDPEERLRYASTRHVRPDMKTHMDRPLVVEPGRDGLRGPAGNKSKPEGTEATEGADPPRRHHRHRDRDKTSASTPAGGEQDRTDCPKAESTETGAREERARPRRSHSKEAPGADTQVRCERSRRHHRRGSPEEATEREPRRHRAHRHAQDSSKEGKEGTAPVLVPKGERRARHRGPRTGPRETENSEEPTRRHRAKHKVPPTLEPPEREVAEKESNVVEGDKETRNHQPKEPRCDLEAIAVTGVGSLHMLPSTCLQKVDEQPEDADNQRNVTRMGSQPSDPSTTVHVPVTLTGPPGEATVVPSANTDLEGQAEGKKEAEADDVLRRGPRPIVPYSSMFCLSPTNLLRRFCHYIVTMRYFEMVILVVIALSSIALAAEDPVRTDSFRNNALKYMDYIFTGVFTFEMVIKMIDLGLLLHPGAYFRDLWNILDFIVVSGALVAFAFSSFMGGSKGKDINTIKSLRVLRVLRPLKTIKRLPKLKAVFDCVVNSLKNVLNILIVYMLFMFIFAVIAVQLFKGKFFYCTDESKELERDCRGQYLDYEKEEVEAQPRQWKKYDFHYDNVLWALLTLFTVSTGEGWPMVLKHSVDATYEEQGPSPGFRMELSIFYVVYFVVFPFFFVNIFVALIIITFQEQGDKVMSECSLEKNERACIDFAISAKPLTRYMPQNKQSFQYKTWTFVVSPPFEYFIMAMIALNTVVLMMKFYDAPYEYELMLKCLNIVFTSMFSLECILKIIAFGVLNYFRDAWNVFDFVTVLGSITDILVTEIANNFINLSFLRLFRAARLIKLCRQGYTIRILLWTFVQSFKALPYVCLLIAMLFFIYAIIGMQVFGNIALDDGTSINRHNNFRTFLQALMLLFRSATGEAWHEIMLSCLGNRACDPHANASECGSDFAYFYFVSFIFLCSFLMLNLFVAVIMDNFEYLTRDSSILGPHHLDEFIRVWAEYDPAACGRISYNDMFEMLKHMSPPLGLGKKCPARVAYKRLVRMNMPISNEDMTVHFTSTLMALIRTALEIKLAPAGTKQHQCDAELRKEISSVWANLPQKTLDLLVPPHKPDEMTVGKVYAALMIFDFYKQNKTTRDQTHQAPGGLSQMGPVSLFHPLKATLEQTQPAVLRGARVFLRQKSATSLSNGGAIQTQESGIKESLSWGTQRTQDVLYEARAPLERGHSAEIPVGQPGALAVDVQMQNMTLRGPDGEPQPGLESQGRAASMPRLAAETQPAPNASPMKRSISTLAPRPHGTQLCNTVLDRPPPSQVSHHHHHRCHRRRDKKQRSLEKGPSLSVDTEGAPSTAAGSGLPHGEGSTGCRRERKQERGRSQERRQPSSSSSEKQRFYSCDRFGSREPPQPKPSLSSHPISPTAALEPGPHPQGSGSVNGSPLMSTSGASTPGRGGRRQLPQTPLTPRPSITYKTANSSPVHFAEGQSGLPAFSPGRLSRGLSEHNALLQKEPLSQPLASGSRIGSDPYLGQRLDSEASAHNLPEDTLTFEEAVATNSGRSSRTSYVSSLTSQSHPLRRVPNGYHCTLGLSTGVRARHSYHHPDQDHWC
T5 sequence (P28222 whole entry): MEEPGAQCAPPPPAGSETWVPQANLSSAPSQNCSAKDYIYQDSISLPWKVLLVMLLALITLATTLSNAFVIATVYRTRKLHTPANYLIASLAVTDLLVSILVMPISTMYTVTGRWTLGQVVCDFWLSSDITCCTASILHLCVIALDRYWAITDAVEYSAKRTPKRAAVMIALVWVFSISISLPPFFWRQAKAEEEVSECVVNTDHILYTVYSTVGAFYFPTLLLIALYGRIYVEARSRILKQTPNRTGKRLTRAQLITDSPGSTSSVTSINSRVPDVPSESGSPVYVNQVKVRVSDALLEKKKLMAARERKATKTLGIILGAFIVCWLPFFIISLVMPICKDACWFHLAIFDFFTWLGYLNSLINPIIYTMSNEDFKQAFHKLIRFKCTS
T2 sequence (P06213 28-1382): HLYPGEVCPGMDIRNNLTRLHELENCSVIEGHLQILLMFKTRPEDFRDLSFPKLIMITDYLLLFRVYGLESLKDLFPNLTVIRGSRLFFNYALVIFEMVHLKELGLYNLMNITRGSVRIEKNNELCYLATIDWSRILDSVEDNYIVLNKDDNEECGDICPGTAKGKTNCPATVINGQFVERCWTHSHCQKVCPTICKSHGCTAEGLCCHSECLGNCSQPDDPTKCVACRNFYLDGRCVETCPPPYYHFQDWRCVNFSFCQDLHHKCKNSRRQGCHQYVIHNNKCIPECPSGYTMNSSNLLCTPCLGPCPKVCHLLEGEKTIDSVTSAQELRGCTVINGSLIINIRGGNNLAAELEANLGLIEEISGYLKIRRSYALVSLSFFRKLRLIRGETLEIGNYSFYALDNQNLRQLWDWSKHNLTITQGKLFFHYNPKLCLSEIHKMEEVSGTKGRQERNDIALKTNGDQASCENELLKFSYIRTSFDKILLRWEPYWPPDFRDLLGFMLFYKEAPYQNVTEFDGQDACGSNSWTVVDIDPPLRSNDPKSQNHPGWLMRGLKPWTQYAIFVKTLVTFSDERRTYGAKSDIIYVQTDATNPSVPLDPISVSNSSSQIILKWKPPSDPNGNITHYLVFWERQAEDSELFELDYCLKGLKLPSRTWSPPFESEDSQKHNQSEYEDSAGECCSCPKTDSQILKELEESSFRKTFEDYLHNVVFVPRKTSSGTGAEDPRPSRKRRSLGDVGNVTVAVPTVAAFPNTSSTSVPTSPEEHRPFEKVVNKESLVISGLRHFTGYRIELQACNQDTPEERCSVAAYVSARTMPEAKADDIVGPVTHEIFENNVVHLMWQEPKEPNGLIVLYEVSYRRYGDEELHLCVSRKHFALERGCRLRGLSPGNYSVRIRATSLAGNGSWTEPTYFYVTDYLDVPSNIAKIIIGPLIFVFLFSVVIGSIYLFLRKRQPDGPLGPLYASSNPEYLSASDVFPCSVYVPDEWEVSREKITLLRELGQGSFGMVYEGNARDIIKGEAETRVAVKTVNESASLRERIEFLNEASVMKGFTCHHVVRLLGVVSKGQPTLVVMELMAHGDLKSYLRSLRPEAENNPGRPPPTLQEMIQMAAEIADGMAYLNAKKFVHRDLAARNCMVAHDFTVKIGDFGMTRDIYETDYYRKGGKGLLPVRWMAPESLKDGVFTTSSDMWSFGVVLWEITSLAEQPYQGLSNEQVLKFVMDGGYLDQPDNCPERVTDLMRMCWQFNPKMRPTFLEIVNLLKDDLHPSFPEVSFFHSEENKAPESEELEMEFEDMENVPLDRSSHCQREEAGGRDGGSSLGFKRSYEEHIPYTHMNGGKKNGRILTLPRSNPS

COCCOCCO[C@@H]1[C@@H](OP(=O)(O)O)[C@H](OCCOCCOC)[C@@H](OP(=O)(O)O)[C@@H](OP(=O)(O)O)[C@H]1OP(=O)(O)O [(OEG2)2-IP4, 4,6-Di-O-(methoxy-diethyleneglycol)-myo-inositol-1,2,3,5-tetrakis(phosphate)]
off-target activity in 87 biochemical assays [1]: did not significantly inhibit or stimulate any
Calcium, A. abdominialis (vascular calcification; 5 mg/kg/day): 12.71 ± 11.66 mg/g tissue
Calcium, A. carotis (vascular calcification; 5 mg/kg/day): 11.06 ± 9.10 mg/g tissue
Calcium, A. femoralis (vascular calcification; 5 mg/kg/day): 4.47 ± 3.95 mg/g tissue
Calcium, Heart (vascular calcification; 5 mg/kg/day): 0.05 ± 0.03 mg/g tissue
Von Kossa positive area in the aorta thoracalis (vascular calcification; 5 mg/kg/day): 17.86 ± 12.46%
Mortality (animals) (vascular calcification; 5 mg/kg/day, s.c. osmotic pump, 4 weeks): 0/12
Calcium, A. abdominialis (vascular calcification; 15 mg/kg/day): 6.24 ± 3.70 mg/g tissue
Calcium, A. carotis (vascular calcification; 15 mg/kg/day): 5.07 ± 6.23 mg/g tissue
Calcium, A. femoralis (vascular calcification; 15 mg/kg/day): 4.14 ± 1.92 mg/g tissue
Calcium, Heart (vascular calcification; 15 mg/kg/day): 0.04 ± 0.01 mg/g tissue
Mortality (animals) (vascular calcification; 15 mg/kg/day): 1/12
Von Kossa positive area in the aorta thoracalis (vascular calcification; 15 mg/kg/day): 14.35 ± 11.49%
Calcium, A. abdominialis (vascular calcification; 50 mg/kg/day): 1.69 ± 1.80 mg/g tissue
Calcium, A. carotis (vascular calcification; 50 mg/kg/day): 0.84 ± 1.11 mg/g tissue
Calcium, A. femoralis (vascular calcification; 50 mg/kg/day): 2.01 ± 1.41 mg/g tissue
Calcium, Heart (vascular calcification; 50 mg/kg/day): 0.04 ± 0.02 mg/g tissue
Mortality (animals) (vascular calcification; 50 mg/kg/day): 1/12
Von Kossa positive area in the aorta thoracalis (vascular calcification; 50 mg/kg/day): 2.72 ± 5.97%
calcification in the carotid artery compared to the 5 and 15 mg/kg/day groups (vascular calcification; 50 mg/kg/day): prevented calcification in the carotid artery
calcemic status of the animals (vascular calcification; 50 mg/kg/day for 4 weeks): not influenced
bulk calcium in the abdominal aorta compared to vehicle (vascular calcification; 5, 15, 50 mg/kg/day): trend in a dose-dependent reduction of bulk calcium
reduction in bulk calcium in the femoral artery (vascular calcification; all tested groups): insignificant
dose from which inhibitory effect on heart calcifications was significant (vascular calcification; rat, in vivo): ≥ 15 mg/kg/day
inhibition at 10 µM (PPARγ): 2%
inhibition at 10 µM [2]: -22%
inhibition at 10 µM [3]: 10%
inhibition at 10 µM [4]: 11%
inhibition at 10 µM [5]: -4%
% Inhibition (Glutamate, NMDA, Agonism): 7%
inhibition at 10 µM (Calcium Channel N-Type): 5%
